Experimental data as given in ChEMBL document CHEMBL1201862, “PubChem BioAssay data set” (2004).
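96-well plates; 48 h exposure; 5 concentrations. Endpoints by linear interpolation between flanking doses. Not reached: highest tested concentration assigned. At the GI50, growth is halved.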 The source made the active and inactive calls. No stated cut-off is given here; in the data, active = GI50 up to about 1.1 µM and inactive = higher.

Columns and labels:
Experiment in all cases: growth of human tumour cells (NCI), 48 h
[1] = tested on: SK-MEL-2
[2] = tested on: UACC-62
[3] = tested on: RPMI-8226
[4] = tested on: SK-MEL-5
[5] = tested on: SR
[6] = tested on: HCC 2998
[7] = tested on: HL-60
[8] = tested on: HOP-62
[9] = tested on: HOP-92
[10] = tested on: CAKI-1
[11] = tested on: HT-29
[12] = tested on: NCI-H226
[13] = tested on: DU-145
[14] = tested on: K562
[15] = tested on: SK-MEL-28
[16] = tested on: T47D
[17] = tested on: MCF7
[18] = tested on: ACHN
[19] = tested on: NCI-H522
[20] = tested on: NCI-H460
[21] = tested on: SF-295
[22] = tested on: LOX IMVI
[23] = tested on: BT-549
[24] = tested on: MDA-MB-435
[25] = tested on: SF-539
[26] = tested on: PC-3
[27] = tested on: OVCAR-8
[28] = tested on: NCI-H23
[29] = tested on: TK-10
[30] = tested on: MOLT-4
[31] = tested on: 786-0
[32] = tested on: U-251
[33] = tested on: KM12
[34] = tested on: UO-31
[35] = tested on: SN12C
[36] = tested on: OVCAR-3
[37] = tested on: OVCAR-5
[38] = tested on: A498
[39] = tested on: SK-OV-3
[40] = tested on: A549
[41] = tested on: CCRF-CEM
[42] = tested on: COLO 205
[43] = tested on: MDA-MB-231
[44] = tested on: SNB-19
[45] = tested on: SW-620
[46] = tested on: OVCAR-4
[47] = tested on: HCT-15
[48] = tested on: UACC-257
[49] = tested on: SF-268
[50] = tested on: M14
[51] = tested on: Malme-3M
[52] = tested on: IGROV-1
[53] = tested on: HCT-116
[54] = tested on: Hs-578T
[55] = tested on: SNB-75
[56] = tested on: NCI/ADR-RES
[57] = tested on: EKVX

COc1cccc(C2SCC(=O)N2c2ccc(-c3ccc(-n4c(-c5ccccc5)nc5ccccc5c4=O)cc3)cc2)c1OC (configuration not stated)
GI50 [1]: > 100 µM (inactive)
GI50 [2]: 29 µM (inactive)
GI50 [3]: > 100 µM (inactive)
GI50 [4]: 30.1 µM (inactive)
GI50 [5]: 60.1 µM (inactive)
GI50 [6]: > 100 µM (inactive)
GI50 [7]: 73.8 µM (inactive)
GI50 [8]: > 100 µM (inactive)
GI50 [9]: 55.8 µM (inactive)
GI50 [10]: 67.8 µM (inactive)
GI50 [11]: 68.4 µM (inactive)
GI50 [12]: 74.1 µM (inactive)
GI50 [13]: > 100 µM (inactive)
GI50 [14]: 73.6 µM (inactive)
GI50 [15]: > 100 µM (inactive)
GI50 [16]: 24.5 µM (inactive)
GI50 [17]: 25.2 µM (inactive)
GI50 [18]: > 100 µM (inactive)
GI50 [19]: > 100 µM (inactive)
GI50 [20]: > 100 µM (inactive)
GI50 [21]: > 100 µM (inactive)
GI50 [22]: 50.7 µM (inactive)
GI50 [23]: 42 µM (inactive)
GI50 [24]: 53.5 µM (inactive)
GI50 [25]: 32.6 µM (inactive)
GI50 [26]: > 100 µM (inactive)
GI50 [27]: > 100 µM (inactive)
GI50 [28]: > 100 µM (inactive)
GI50 [29]: > 100 µM (inactive)
GI50 [30]: 60.8 µM (inactive)
GI50 [31]: > 100 µM (inactive)
GI50 [32]: 34.6 µM (inactive)
GI50 [33]: 50.4 µM (inactive)
GI50 [34]: 32.8 µM (inactive)
GI50 [35]: > 100 µM (inactive)
GI50 [36]: > 100 µM (inactive)
GI50 [37]: > 100 µM (inactive)
GI50 [38]: > 100 µM (inactive)
GI50 [39]: > 10 µM (inactive)
GI50 [40]: 83.8 µM (inactive)
GI50 [41]: 67.1 µM (inactive)
GI50 [42]: > 100 µM (inactive)
GI50 [43]: > 100 µM (inactive)
GI50 [44]: > 100 µM (inactive)
GI50 [45]: > 10 µM (inactive)
GI50 [46]: 77.6 µM (inactive)
GI50 [47]: 52.7 µM
GI50 [48]: > 100 µM (inactive)
GI50 [49]: 71.8 µM (inactive)
GI50 [50]: > 100 µM (inactive)
GI50 [51]: > 100 µM (inactive)
GI50 [52]: 99.1 µM (inactive)
GI50 [53]: 59.8 µM (inactive)
GI50 [54]: 58.9 µM (inactive)
GI50 [55]: 22 µM (inactive)
GI50 [56]: > 100 µM (inactive)
GI50 [57]: > 100 µM (inactive)
